Here are results for twelve compounds from ChEMBL document CHEMBL4196087 (Eur J Med Chem, 2018).

Converted amounts (≈) assume the structure as drawn. Some results are limits rather than exact numbers.

Format in all cases: functional
Assay [1] deals with Escherichia coli. Put plainly: Antibacterial activity against Escherichia coli at 37 degC measured after 24 hrs by agar disc diffusion method. In general terms: In agar diffusion tests the substance spreads into inoculated agar from a disc or well.
Assay [2] deals with Bacillus subtilis. Put plainly: Antibacterial activity against Bacillus subtilis at 37 degC measured after 24 hrs by agar disc diffusion method.
Assay [3] deals with Pseudomonas aeruginosa. Put plainly: Antibacterial activity against Pseudomonas aeruginosa at 37 degC measured after 24 hrs by agar disc diffusion method.
Assay [4] concerns Staphylococcus aureus. In words: Antibacterial activity against Staphylococcus aureus at 37 degC measured after 24 hrs by agar disc diffusion method.
Assay [5] relates to SNB-75. In words: Growth inhibition of human SNB75 cells at 10^-5 M incubated for 48 hrs by sulforhodamine B assay relative to control. Conditions: SNB-75, 48 h, read-out: GI.
Assay [6] has as its system HOP-62. Put plainly: Growth inhibition of human HOP62 cells at 10^-5 M incubated for 48 hrs by sulforhodamine B assay relative to control. As to conditions: HOP-62, 48 h, read-out: GI. (In general: The SRB assay estimates cell density from bound dye.)
The test system of assay [7] is IGROV-1. Put plainly: Growth inhibition of human IGROV1 cells at 10^-5 M incubated for 48 hrs by sulforhodamine B assay relative to control. As to conditions: IGROV-1, 48 h, read-out: GI.
For assay [8], the system named is SK-MEL-5. Put plainly: Growth inhibition of human SK-MEL-5 cells at 10^-5 M incubated for 48 hrs by sulforhodamine B assay relative to control. Conditions: SK-MEL-5, 48 h, read-out: GI.
Assay [9] concerns Pseudomonas aeruginosa. Put plainly: Antibacterial activity against Pseudomonas aeruginosa at 37 degC measured after 24 hrs by CLSI M7-A4 protocol based method.
Assay [10] concerns Bacillus subtilis. Put plainly: Antibacterial activity against Bacillus subtilis at 37 degC measured after 24 hrs by CLSI M7-A4 protocol based method.
Assay [11] has as its system CCRF-CEM. In words: Growth inhibition of human CCRF-CEM cells at 10^-5 M incubated for 48 hrs by sulforhodamine B assay relative to control. As to conditions: read-out: GI.
Assay [12] relates to MCF7. Put plainly: Growth inhibition of human MCF7 cells at 10^-5 M incubated for 48 hrs by sulforhodamine B assay relative to control. As to conditions: MCF7, 48 h, read-out: GI.
The test system of assay [13] is RPMI-8226. Put plainly: Growth inhibition of human RPMI8226 cells at 10^-5 M incubated for 48 hrs by sulforhodamine B assay relative to control. Conditions: RPMI-8226, 48 h, read-out: GI.
Assay [14] deals with PC-3. Put plainly: Growth inhibition of human PC3 cells at 10^-5 M incubated for 48 hrs by sulforhodamine B assay relative to control. As to conditions: PC-3, 48 h, read-out: GI.
The subject of assay [15] is LOX IMVI. In words: Growth inhibition of human LOXIMVI cells at 10^-5 M incubated for 48 hrs by sulforhodamine B assay relative to control. As to conditions: read-out: GI.
The subject of assay [16] is UO-31. Put plainly: Growth inhibition of human UO31 cells at 10^-5 M incubated for 48 hrs by sulforhodamine B assay relative to control. Conditions: UO-31, 48 h, read-out: GI.
The subject of assay [17] is MDA-MB-231. In words: Growth inhibition of human MDA-MB-231 cells at 10^-5 M incubated for 48 hrs by sulforhodamine B assay relative to control. Conditions: MDA-MB-231, 48 h, read-out: GI.
The subject of assay [18] is HOP-92. In words: Growth inhibition of human HOP92 cells at 10^-5 M incubated for 48 hrs by sulforhodamine B assay relative to control. Conditions: HOP-92, 48 h, read-out: GI.
Assay [19] has as its system MDA-MB-468. In words: Growth inhibition of human MDA-MB-468 cells at 10^-5 M incubated for 48 hrs by sulforhodamine B assay relative to control. As to conditions: MDA-MB-468, 48 h, read-out: GI.
The subject of assay [20] is T47D. In words: Growth inhibition of human T47D cells at 10^-5 M incubated for 48 hrs by sulforhodamine B assay relative to control. Conditions: read-out: GI.
For assay [21], the system named is SF-539. In words: Growth inhibition of human SF539 cells at 10^-5 M incubated for 48 hrs by sulforhodamine B assay relative to control. Conditions: SF-539, 48 h, read-out: GI.
Assay [22] has as its system K562. In words: Growth inhibition of human K562 cells at 10^-5 M incubated for 48 hrs by sulforhodamine B assay relative to control. Conditions: K562, 48 h, read-out: GI.
The test system of assay [23] is MOLT-4. In words: Growth inhibition of human MOLT4 cells at 10^-5 M incubated for 48 hrs by sulforhodamine B assay relative to control. As to conditions: MOLT-4, 48 h, read-out: GI.
Assay [24] relates to A498. In words: Growth inhibition of human A498 cells at 10^-5 M incubated for 48 hrs by sulforhodamine B assay relative to control. As to conditions: A498, 48 h, read-out: GI.
Assay [25] relates to HL-60(TB). Put plainly: Growth inhibition of human HL-60(TB) cells at 10^-5 M incubated for 48 hrs by sulforhodamine B assay relative to control. Conditions: HL-60, 48 h, read-out: GI.
Assay [26] deals with NCI-H226. In words: Growth inhibition of human NCI-H226 cells at 10^-5 M incubated for 48 hrs by sulforhodamine B assay relative to control. As to conditions: NCI-H226, 48 h, read-out: GI.

For the compound `O=C(CN1CCN(c2cc3c(cc2F)c(=O)c(C(=O)O)cn3C2CC2)CC1)N/N=C/c1ccccc1F`, the “diameter of the inhibition zone (DIZ)” value is on record as 26 mm in assay [1], 29 mm in assay [2], 29 mm in [3] and 26 mm in assay [4].
Regarding `O=C(CN1CCN(c2cc3c(cc2F)c(=O)c(C(=O)O)cn3C2CC2)CC1)N/N=C/c1ccc(F)cc1`, the “diameter of the inhibition zone (DIZ)” value in assay [1] is reported as 17 mm; in assay [2], 19 mm; in assay [3], 19 mm; in assay [4] it was 18 mm.
Broadly, the MIC is the least concentration at which growth counts as inhibited. For the compound `O=C(CN1CCN(c2cc3c(cc2F)c(=O)c(C(=O)O)cn3C2CC2)CC1)N/N=C/c1ccc(Cl)cc1`, the “diameter of the inhibition zone (DIZ)” value in assay [1] is on record as 28 mm; in assay [2] it was 30 mm; in [3], 30 mm; in assay [4] it was 28 mm. Besides, the inhibition of growth at 10 µM in [5], in [6], in assay [7], in [8], in assay [11] and in [12] was below 20% each time. In addition, the inhibition of growth at 10 µM in assay [13], in [14], in assay [15], in assay [16], in assay [17] and in [18] was below 20% each time. Besides, the inhibition of growth at 10 µM was below 20% in assay [19]; below 20% in [20]; below 20% in [21]; below 20% in [22]; below 20% in [23]; 26.7% in [24]. The inhibition of growth at 10 µM in assay [25] and in assay [26] was below 20% in each case. Besides, the minimum inhibitory concentration (MIC) in assay [9] turned out to be 60 µg/mL (≈ 114 µM); in assay [10], 62 µg/mL (≈ 118 µM).
Consider `O=C(CN1CCN(c2cc3c(cc2F)c(=O)c(C(=O)O)cn3C2CC2)CC1)N/N=C/c1ccccc1Cl`, for which the “diameter of the inhibition zone (DIZ)” value is 19 mm in assay [1], 22 mm in [2], 22 mm in assay [3] and 20 mm in assay [4].
Consider `O=C(CN1CCN(c2cc3c(cc2F)c(=O)c(C(=O)O)cn3C2CC2)CC1)N/N=C/c1ccco1`, for which the “diameter of the inhibition zone (DIZ)” value is 28 mm in assay [1], 31 mm in assay [2], 30 mm in assay [3] and 26 mm in [4]. Also, the MIC in assay [9] turned out to be 66 µg/mL (≈ 137 µM); in assay [10], 70 µg/mL (≈ 145 µM).
`NNC(=O)CN1CCN(c2cc3c(cc2F)c(=O)c(C(=O)O)cn3C2CC2)CC1`: the “diameter of the inhibition zone (DIZ)” value in assay [1] came out at 28 mm; in [2] it was 33 mm; in assay [3] it was 30 mm; in assay [4], 28 mm. The inhibition of growth at 10 µM in assay [5], in assay [6], in assay [7], in [8], in assay [11] and in assay [12] was below 20% throughout. Moreover, the inhibition of growth at 10 µM in assay [13], in assay [14], in assay [15], in [16], in assay [17] and in assay [18] was below 20% each time. Besides, the inhibition of growth at 10 µM in [19], in [20], in [21], in assay [22], in assay [23] and in [24] was below 20% throughout. In addition, the inhibition of growth at 10 µM in assay [25] is 20.5%; in assay [26] it was below 20%.
Take `O=C(CN1CCN(c2cc3c(cc2F)c(=O)c(C(=O)O)cn3C2CC2)CC1)N/N=C/c1cccnc1`: the “diameter of the inhibition zone (DIZ)” value in [1] is 29 mm; in [2], 32 mm; in assay [3], 31 mm; in [4], 30 mm. The MIC in assay [9] was 58 µg/mL (≈ 118 µM); in [10], 60 µg/mL (≈ 122 µM).
As for `O=C(O)c1cn(C2CC2)c2cc(N3CCNCC3)c(F)cc2c1=O` [CIPROFLOXACIN], the “diameter of the inhibition zone (DIZ)” value in [1] was 33 mm; in [2], 38 mm; in assay [3], 36 mm; in assay [4], 31 mm.
For `COc1cc(/C=N/NC(=O)CN2CCN(c3cc4c(cc3F)c(=O)c(C(=O)O)cn4C3CC3)CC2)cc(OC)c1OC`, in that order: 20 mm, 23 mm, 23 mm and 21 mm.
For `COc1cc(/C=N/NC(=O)CN2CCN(c3cc4c(cc3F)c(=O)c(C(=O)O)cn4C3CC3)CC2)ccc1O`, the “diameter of the inhibition zone (DIZ)” value in assay [1] was found to be 18 mm; in assay [2], 20 mm; in assay [3], 18 mm; in assay [4], 16 mm.
As to `O=C(CN1CCN(c2cc3c(cc2F)c(=O)c(C(=O)O)cn3C2CC2)CC1)N/N=C/c1ccncc1`, the “diameter of the inhibition zone (DIZ)” value turned out to be 28 mm in assay [1], 35 mm in [2], 30 mm in assay [3] and 30 mm in assay [4]. In addition, the minimum inhibitory concentration (MIC) in assay [9] was determined as 44 µg/mL (≈ 89.3 µM); in assay [10] it was 62 µg/mL (≈ 126 µM).
Consider `COc1ccc(/C=N/NC(=O)CN2CCN(c3cc4c(cc3F)c(=O)c(C(=O)O)cn4C3CC3)CC2)cc1`, for which the “diameter of the inhibition zone (DIZ)” value in [1] is 24 mm; in [2] it was 26 mm; in assay [3], 27 mm; in assay [4], 25 mm. Moreover, the inhibition of growth at 10 µM in assay [5], in assay [6], in [7], in assay [8], in assay [11] and in [12] was below 20% throughout. In addition, the inhibition of growth at 10 µM was below 20% in assay [13]; below 20% in assay [14]; 23.2% in assay [15]; below 20% in [16]; below 20% in assay [17]; below 20% in assay [18]. For the same compound, the inhibition of growth at 10 µM in [19], in assay [20], in assay [21], in [22], in assay [23] and in [24] was below 20% each time. The inhibition of growth at 10 µM in assay [25] and in [26] was below 20% each time.
